# Measured values published in ChEMBL document CHEMBL5038625, “Application of the dual-tail approach for the design and synthesis of novel Thiopyrimidine-Benzenesulfonamide hybrids as selective carbonic anhydrase inhibitors” (Eur J Med Chem, 2022).
# How the values were obtained:
# Carbonic anhydrase 9 = Carbonic anhydrase 9 (Homo sapiens, UniProt Q16790); experiment: Inhibition of human CA9 preincubated for 15 mins by phenol red dye based stopped flow CO2 hydration assay
# SF-539 = experiment: Antiproliferative activity against human SF-539 cells assessed as cell growth inhibition at 10 uM incubated for 24 hrs by sulforhodamine B assay; format: functional; conditions: read-out: GI
# CCRF-CEM = experiment: Antiproliferative activity against human CCRF-CEM cells assessed as cell growth inhibition at 10 uM incubated for 24 hrs by sulforhodamine B assay; format: functional; conditions: read-out: GI
# HL-60 = experiment: Antiproliferative activity against human HL-60 cells assessed as cell growth inhibition at 10 uM incubated for 24 hrs by sulforhodamine B assay; format: functional; conditions: read-out: GI
# K562 = experiment: Antiproliferative activity against human K562 cells assessed as cell growth inhibition at 10 uM incubated for 24 hrs by sulforhodamine B assay; format: functional; conditions: read-out: GI
# MOLT-4 = experiment: Antiproliferative activity against human MOLT-4 cells assessed as cell growth inhibition at 10 uM incubated for 24 hrs by sulforhodamine B assay; format: functional; conditions: read-out: GI
# RPMI-8226 = experiment: Antiproliferative activity against human RPMI-8226 cells assessed as cell growth inhibition at 10 uM incubated for 24 hrs by sulforhodamine B assay; format: functional; conditions: read-out: GI
# SR = experiment: Antiproliferative activity against human SR cells assessed as cell growth inhibition at 10 uM incubated for 24 hrs by sulforhodamine B assay; format: functional; conditions: read-out: GI
# A549 = experiment: Antiproliferative activity against human A549 cells assessed as cell growth inhibition at 10 uM incubated for 24 hrs by sulforhodamine B assay; format: functional; conditions: read-out: GI
# EKVX = experiment: Antiproliferative activity against human EKVX cells assessed as cell growth inhibition at 10 uM incubated for 24 hrs by sulforhodamine B assay; format: functional; conditions: read-out: GI
# HOP-92 = experiment: Antiproliferative activity against human HOP-92 cells assessed as cell growth inhibition at 10 uM incubated for 24 hrs by sulforhodamine B assay; format: functional; conditions: read-out: GI
# NCI-H226 = experiment: Antiproliferative activity against human NCI-H226 cells assessed as cell growth inhibition at 10 uM incubated for 24 hrs by sulforhodamine B assay; format: functional; conditions: read-out: GI
# [1] = Antiproliferative activity against human […] cells assessed as cell growth inhibition at 10 uM incubated for 24 hrs by sulforhodamine B assay; format: functional; conditions: read-out: GI
# NCI-H460 = experiment: Antiproliferative activity against human NCI-H460 cells assessed as cell growth inhibition at 10 uM incubated for 24 hrs by sulforhodamine B assay; format: functional; conditions: read-out: GI
# NCI-H522 = experiment: Antiproliferative activity against human NCI-H522 cells assessed as cell growth inhibition at 10 uM incubated for 24 hrs by sulforhodamine B assay; format: functional; conditions: read-out: GI
# HCT-116 = experiment: Antiproliferative activity against human HCT-116 cells assessed as cell growth inhibition at 10 uM incubated for 24 hrs by sulforhodamine B assay; format: functional; conditions: read-out: GI
# HCT-15 = experiment: Antiproliferative activity against human HCT-15 cells assessed as cell growth inhibition at 10 uM incubated for 24 hrs by sulforhodamine B assay; format: functional; conditions: read-out: GI
# KM12 = experiment: Antiproliferative activity against human KM12 cells assessed as cell growth inhibition at 10 uM incubated for 24 hrs by sulforhodamine B assay; format: functional; conditions: read-out: GI
# SF-295 = experiment: Antiproliferative activity against human SF-295 cells assessed as cell growth inhibition at 10 uM incubated for 24 hrs by sulforhodamine B assay; format: functional; conditions: read-out: GI
# SNB-19 = experiment: Antiproliferative activity against human SNB-19 cells assessed as cell growth inhibition at 10 uM incubated for 24 hrs by sulforhodamine B assay; format: functional; conditions: read-out: GI
# SNB-75 = experiment: Antiproliferative activity against human SNB-75 cells assessed as cell growth inhibition at 10 uM incubated for 24 hrs by sulforhodamine B assay; format: functional; conditions: read-out: GI
# U-251 = experiment: Antiproliferative activity against human U-251 cells assessed as cell growth inhibition at 10 uM incubated for 24 hrs by sulforhodamine B assay; format: functional; conditions: read-out: GI
# LOX IMVI = experiment: Antiproliferative activity against human LOX IMVI cells assessed as cell growth inhibition at 10 uM incubated for 24 hrs by sulforhodamine B assay; format: functional; conditions: read-out: GI
# Malme-3M = experiment: Antiproliferative activity against human Malme-3M cells assessed as cell growth inhibition at 10 uM incubated for 24 hrs by sulforhodamine B assay; format: functional; conditions: read-out: GI
# MDA-MB-435 = experiment: Antiproliferative activity against human MDA-MB-435 cells assessed as cell growth inhibition at 10 uM incubated for 24 hrs by sulforhodamine B assay; format: functional; conditions: read-out: GI
# SK-MEL-5 = experiment: Antiproliferative activity against human SK-MEL-5 cells assessed as cell growth inhibition at 10 uM incubated for 24 hrs by sulforhodamine B assay; format: functional; conditions: read-out: GI
# UACC-62 = experiment: Antiproliferative activity against human UACC-62 cells assessed as cell growth inhibition at 10 uM incubated for 24 hrs by sulforhodamine B assay; format: functional; conditions: read-out: GI
# OVCAR-4 = experiment: Antiproliferative activity against human OVCAR-4 cells assessed as cell growth inhibition at 10 uM incubated for 24 hrs by sulforhodamine B assay; format: functional; conditions: read-out: GI
# OVCAR-8 = experiment: Antiproliferative activity against human OVCAR-8 cells assessed as cell growth inhibition at 10 uM incubated for 24 hrs by sulforhodamine B assay; format: functional; conditions: read-out: GI
# 786-0 = experiment: Antiproliferative activity against human 786-0 cells assessed as cell growth inhibition at 10 uM incubated for 24 hrs by sulforhodamine B assay; format: functional; conditions: read-out: GI
# A498 = experiment: Antiproliferative activity against human A498 cells assessed as cell growth inhibition at 10 uM incubated for 24 hrs by sulforhodamine B assay; format: functional; conditions: read-out: GI
# ACHN = experiment: Antiproliferative activity against human ACHN cells assessed as cell growth inhibition at 10 uM incubated for 24 hrs by sulforhodamine B assay; format: functional; conditions: read-out: GI
# CAKI-1 = experiment: Antiproliferative activity against human CAKI-1 cells assessed as cell growth inhibition at 10 uM incubated for 24 hrs by sulforhodamine B assay; format: functional; conditions: read-out: GI
# RXF 393 = experiment: Antiproliferative activity against human RXF 393 cells assessed as cell growth inhibition at 10 uM incubated for 24 hrs by sulforhodamine B assay; format: functional; conditions: read-out: GI
# SN12C = experiment: Antiproliferative activity against human SN12C cells assessed as cell growth inhibition at 10 uM incubated for 24 hrs by sulforhodamine B assay; format: functional; conditions: read-out: GI
# UO-31 = experiment: Antiproliferative activity against human UO-31 cells assessed as cell growth inhibition at 10 uM incubated for 24 hrs by sulforhodamine B assay; format: functional; conditions: read-out: GI
# PC-3 = experiment: Antiproliferative activity against human PC-3 cells assessed as cell growth inhibition at 10 uM incubated for 24 hrs by sulforhodamine B assay; format: functional; conditions: read-out: GI
# DU-145 = experiment: Antiproliferative activity against human DU-145 cells assessed as cell growth inhibition at 10 uM incubated for 24 hrs by sulforhodamine B assay; format: functional; conditions: read-out: GI
# MCF7 [2] = experiment: Antiproliferative activity against human MCF7 cells assessed as cell growth inhibition at 10 uM incubated for 24 hrs by sulforhodamine B assay; format: functional; conditions: read-out: GI
# Hs-578T = experiment: Antiproliferative activity against human HS-578T cells assessed as cell growth inhibition at 10 uM incubated for 24 hrs by sulforhodamine B assay; format: functional; conditions: read-out: GI
# BT-549 = experiment: Antiproliferative activity against human BT-549 cells assessed as cell growth inhibition at 10 uM incubated for 24 hrs by sulforhodamine B assay; format: functional; conditions: read-out: GI
# T47D [3] = experiment: Antiproliferative activity against human T47D cells assessed as cell growth inhibition at 10 uM incubated for 24 hrs by sulforhodamine B assay; format: functional; conditions: read-out: GI
# MDA-MB-468 = experiment: Antiproliferative activity against human MDA-MB-468 cells assessed as cell growth inhibition at 10 uM incubated for 24 hrs by sulforhodamine B assay; format: functional; conditions: read-out: GI
# MCF7 [4] = experiment: Antiproliferative activity against human MCF7 cells assessed as reduction in cell viability incubated for 24 hrs by sulforhodamine B assay; format: functional, cell-based; conditions: MCF7, 24 h
# T47D [5] = experiment: Antiproliferative activity against human T47D cells assessed as reduction in cell viability incubated for 24 hrs by sulforhodamine B assay; format: functional, cell-based
# MDA-MB-231 [6] = experiment: Antiproliferative activity against human MDA-MB-231 cells assessed as reduction in cell viability incubated for 24 hrs by sulforhodamine B assay; format: functional, cell-based; conditions: MDA-MB-231, 24 h
# MDA-MB-231 [7] = experiment: Antiproliferative activity against human MDA-MB-231 cells assessed as cell growth inhibition at 10 uM incubated for 24 hrs by sulforhodamine B assay; format: functional; conditions: read-out: GI
smiles,measurement,setting,value
COc1ccc(OC)c(-c2nc(SCC(=O)c3ccccc3)nc(Nc3ccc(S(N)(=O)=O)cc3)c2C#N)c1,Ki,Carbonic anhydrase 9,0.0877 µM
same,inhibition of growth at 10 µM,SF-539,27.1%
same,inhibition of growth at 10 µM,CCRF-CEM,10.7%
same,inhibition of growth at 10 µM,HL-60,8.52%
same,inhibition of growth at 10 µM,K562,14.6%
same,inhibition of growth at 10 µM,MOLT-4,30.1%
same,inhibition of growth at 10 µM,RPMI-8226,18.1%
same,inhibition of growth at 10 µM,SR,22.7%
same,inhibition of growth at 10 µM,A549,10.8%
same,inhibition of growth at 10 µM,EKVX,11.3%
same,inhibition of growth at 10 µM,HOP-92,52%
same,inhibition of growth at 10 µM,NCI-H226,7.28%
same,inhibition of growth at 10 µM,[1],10.1%
same,inhibition of growth at 10 µM,NCI-H460,10.9%
same,inhibition of growth at 10 µM,NCI-H522,6.74%
same,inhibition of growth at 10 µM,HCT-116,7.67%
same,inhibition of growth at 10 µM,HCT-15,26.3%
same,inhibition of growth at 10 µM,KM12,8.89%
same,inhibition of growth at 10 µM,SF-295,10.3%
same,inhibition of growth at 10 µM,SNB-19,9.28%
same,inhibition of growth at 10 µM,SNB-75,18.4%
same,inhibition of growth at 10 µM,U-251,9.25%
same,inhibition of growth at 10 µM,LOX IMVI,17.7%
same,inhibition of growth at 10 µM,Malme-3M,6.7%
same,inhibition of growth at 10 µM,MDA-MB-435,7.57%
same,inhibition of growth at 10 µM,SK-MEL-5,5.91%
same,inhibition of growth at 10 µM,UACC-62,5.35%
same,inhibition of growth at 10 µM,OVCAR-4,14.9%
same,inhibition of growth at 10 µM,OVCAR-8,7.32%
same,inhibition of growth at 10 µM,786-0,12.6%
same,inhibition of growth at 10 µM,A498,30.7%
same,inhibition of growth at 10 µM,ACHN,6.95%
same,inhibition of growth at 10 µM,CAKI-1,23.3%
same,inhibition of growth at 10 µM,RXF 393,25.6%
same,inhibition of growth at 10 µM,SN12C,14.1%
same,inhibition of growth at 10 µM,UO-31,29.1%
same,inhibition of growth at 10 µM,PC-3,20.6%
same,inhibition of growth at 10 µM,DU-145,8.97%
same,inhibition of growth at 10 µM,MCF7 [2],14.7%
same,inhibition of growth at 10 µM,Hs-578T,6.75%
same,inhibition of growth at 10 µM,BT-549,8.03%
same,inhibition of growth at 10 µM,T47D [3],20.4%
same,inhibition of growth at 10 µM,MDA-MB-468,18.3%
same,IC50,MCF7 [4],> 100 µM
same,IC50,T47D [5],> 100 µM
same,IC50,MDA-MB-231 [6],> 100 µM
same,inhibition of growth at 10 µM,MDA-MB-231 [7],23.6%
